For series [1], the system named is Histamin-H1. Nature of the series: Protection against lethal histamine dihydrochloride dose (histamine H1 antagonism) in guinea pigs. The series is classed as in vivo, Meerschweinchen. As to conditions: 10 per dose, test substance orally 1 hour before lethal Histamin-dihydrochlorid (10 mg/kg s.c.), dose protecting 50% of animals from death, probit method. From the text: Ueberraschenderweise hat es sich gezeigt, dass die erfindungsgemässen Produkte die H1-Wirkung des Histamins zu hemmen vermögen. Die Verbindungen der allgemeinen Formel I und ihre pharmazeutisch annehmbaren Säureadditionssalze sind somit wertvolle Histamin-H antagonistische Wirkstoffe und eignen sich insbesondere zur Bekämpfung bzw. Verhütung von allergischen Reaktionen, wie beispielsweise Urtikaria, Heuschnupfen, Anaphylaxie und Arzneimittelüberempfindlichkeit. Diese Histamin-H1 antagonistischen Eigenschaften können wie nachfolgend beschrieben an männlichen und weiblichen, 240 bis 300 g schweren Meerschweinchen (SPF, Füllinsdorf) ermittelt werden:
Den Versuchstieren (10 pro Dosis) wird während 24 Stunden vor Versuchsbeginn das Futter entzogen, wobei Wasser ad libitum erhältlich ist. Eine Stunde nach oraler Verabreichung einer Lösung der Testsubstanz (10 ml/kg) erhalten die Versuchstiere eine letale Dosis von Histamin-dihydrochlorid (10 mg/kg s.c.). Ungeschützte Tiere, d.h. nur mit Histamin-dihydrochlorid behandelte Tiere, sterben innerhalb einer Stunde. Nach Auszählen der überlebenden, geschützten'Tiere wird die ED50 nach der Probitmethode ermittelt. Die ED50 ist diejenige Dosis, die notwendig ist, um 50% der mit der Testsubstanz behandelten Tiere vor dem Tod zu schützen.

Series [2] in a line: Acute toxicity after single oral administration to mice. Particulars: mouse, in vivo, read-out: DL50 (the source's name). The source says:
Die nachfolgende Tabelle enthält für zwei repräsentative Vertreter der durch die allgemeine Formel I umfassten Verbindungsklasse die ED50-Werte, sowie Angaben über deren akute Toxizität bei einmaliger oraler Verabreichung an Mäusen (DL50 in m^g/k^g).

For `Cc1cccc2c1CCC1=C(CCCC1)C2CCCN(C)C` (stereo not shown) [B, 2,3,4,5,10,11-Hexahydro-N,N,9-trimethyl-1H-dibenzo-[a,d]cyclohepten-5-propylamin], in series [1], the ED50 is given as 0,9 mg/kg p.o. In addition, in series [2], the LD50 was in the range of 250 to 500 mg/kg.

As for `Cc1cccc2c1CCC1=C(CC=CC1)C2CCCN(C)C` (stereo not shown) [A, 4,5,10,11-Tetrahydro-N,N,9-trimethyl-1H-dibenzo[a,d]-cyclohepten-5-propylamin], the ED50 in series [1] was 0,4 mg/kg p.o. Also, the LD50 in series [2] was in the range of 600 to 1200 mg/kg.

For the origin of these results see EP0056616A2, “Cycloheptene derivatives, process for their preparation, and pharmaceuticals containing them” (F. HOFFMANN-LA ROCHE & CO. Aktiengesellschaft, priority 1981, dated 1982).
